How the values were obtained:
[1] = tested on: dairy cow; experiment: Inter-teat perimeter (ITP, udder engorgement) at dry-off, IMM study (Example 2); format: in vivo
Description: 10 lactating cows (9 Prim'holstein and 1 Brown Swiss) were included in this study. […] Animal had free access to water and hay throughout the study. Each cow was given 7 kg/day of an antibiotic free concentrate feed for lactating cow until D0 dry off. After dry-off each cow was given 7 kg/day of an antibiotic free concentrate for growing cattle. The composition of concentrate is given hereafter: At D0 dry-off, an abrupt milking cessation was performed. The inter-teat perimeter (ITP) was considered as a proxy of udder volume and engorgement, and was measured before treatment udder, both before and after milking, and then evenly after treatment until 9 days post-treatment.

[2] = Pharmacokinetics of cabergoline in plasma after IMM administration (Example 2.2); format: in vivo, cow; settings: female, Prim'holstein and Brown Swiss, bovine, 5.4 mg/udder, n=5, plasma
Description: (§1) 10 lactating cows (9 Prim'holstein and 1 Brown Swiss) were included in this study.

[3] = tested on: dairy cow; experiment: Previous IM dose-effect study of cabergoline on milk production reduction (comparative); format: in vivo; settings: extrapolation of the dose-effect relationship to an IM dose of 7.5 μg/kg
Description: The obtained results are the following:

[4] = Blood calcium concentration after IMM cabergoline at dry-off (Example 2.3); format: in vivo, cow
Description: as §1
No feed restriction was put in place within the 3 weeks preceding the D0 dry-off and after. Animal had free access to water and hay throughout the study. Each cow was given 7 kg/day of an antibiotic free concentrate feed for lactating cow until D0 dry off. After dry-off each cow was given 7 kg/day of an antibiotic free concentrate for growing cattle.

[5] = tested on: dairy cow; experiment: Field-controlled study (n=106), IM route, decrease of milk production; format: in vivo
Description: Extrapolation of the dose-effect relationship, with an IM dose of 7.5 μg/kg gave a predicted effect on milk production reduction of −43%.

[6] = Pharmacokinetics of cabergoline in plasma after IM administration, 5.6 mg/cow (comparative study); format: in vivo; settings: bovine, n=6, plasma
[7] = tested on: Prim'holstein lactating cows; experiment: Cabergoline effect by intramammary (IMM) route on milk production, milking continuation context (Example 1); format: in vivo; settings: IMM 1.34 mg/quarter in all 4 quarters (5.4 mg/cow, ~7.5 μg/kg) after evening milking D4; n=5; printed as minus 6 L
Description: The cabergoline composition is a solution comprising cabergoline with dimethyl sulfoxide and medium-chain triglycerides, as excipients.
5 Prim'holstein lactating cows were included in the study, with the following characteristics: • Multiparous: parity 2 to 4 • Daily milk yield (L): 17.4+/−2.8 • Days in milk (d): 251+/−51 • Body weight (kg): 686+/−29
Cabergoline was administered as an oily solution as described above, with an intramammary cannula inserted into the teat canal and fitted to the tip of a syringe containing the solution. A volume of 10 mL was directly deposited into the udder cistern of each quarter.
Cows were milked twice a day, morning and evening, at around 07 am and 05 pm respectively.
Milk production (morning milking) was measured during the days before (baseline) and after treatment.
The 5 cows were treated with a dose 1.34 mg/quarter in all 4 quarters (total dose 5.4 mg/cow, corresponding to ˜7.5 μg/kg when expressed according to kg body weight, after evening milking (D4), i.e. 15-20 minutes after the end of milking.

[8] = tested on: dairy cow; experiment: Delta ITP at dry-off, IM study with the same total dose (comparative); format: in vivo; settings: same total dose by IM route, n=130
[9] = Blood calcium concentration after IM cabergoline 5.6 mg/cow (previous studies); format: in vivo; settings: versus negative control group
Description: Said studies were conducted in comparison versus a negative control group, and blood calcium decrease was monitored and well identified: A calcium decrease was observed as soon as 2 to 3 hours post-treatment, maximal between 6 and 12 hours and return to normal after 24 hours.
It is important to note that, in the study of example 2, the benefit regarding a less decrease of blood calcium concentration was obtained, despite a less quantity of calcium supplied by food, when compared to the IM studies 1 and 2. In these last 2 IM studies, 150 g of calcium/day/cow was provided through a total or partial mixed ration, whereas in the IMM study of example 2 only 50 g of calcium was provided via the concentrate (7 kg/day/cow at 0.7% of Ca) and a remaining part via the hay given ad libidum. Although the exact quantity of Ca provided by the hay was unknown, it was surely less than in the 2 IM studies, because, • i) the content of calcium in the hay is generally lower than concentrates, usually around 0.3% • ii) the actual hay dry matter intake could be estimated around 13 to 15 kg for the cows included in example 2

AUC ([2]; read-out: AUCo-inf, mean (sd)): 4.75 ng·h/mL
Cmax ([2]; read-out: Cmax, mean (sd)): 0.114 ng/mL
MRT ([2]; read-out: MRT, mean (sd)): 36.3 h
Tmax ([2]; read-out: Tmax, mean (sd)): 8.4 h
decrease of blood calcium concentration in comparison with control cows, mean ([4]; IMM 1.34 mg/quarter in all 4 quarters, +6 hours time point only): -0.2 mmol/L
blood calcium concentration change at other time points ([4]; IMM, +3 h, +12 h, +24 h and onward): No decrease
AUC ([6]; read-out: AUCo-inf, mean (sd)): 2.49 ng·h/mL
Cmax ([6]; read-out: Cmax, mean (sd)): 0.15 ng/mL
MRT ([6]; read-out: MRT, mean (sd)): 22.7 h
Tmax ([6]; read-out: Tmax, mean (sd)): 3 h
time of return of blood calcium to normal [9]: > 24 h
Structure (SMILES): C=CCN1C[C@H](C(=O)N(CCCN(C)C)C(=O)NCC)C[C@@H]2c3cccc4[nH]cc(c34)C[C@H]21 [cabergoline, N-[3-(dimethylamino)propyl]-N-[(ethylamino)carbonyl]-6-(2-propenyl)-8g-ergoline-8-carboxamide]
ITP of treated cows versus control after dry-off ([1]; IMM 1.34 mg/quarter in all 4 quarters, first 48 hours after treatment, FIG. 2): increased less than control
Mean ΔITP at +24 h after treatment ([1]; IMM study, 1.34 mg/quarter in all 4 quarters at D0 dry-off, n=5): 8.3 cm
Mean ΔITP before/after milking, before treatment ([1]; IMM study, cabergoline group n=5, baseline before treatment): 13.1 cm
predicted effect on milk production reduction [3]: −43%
decrease of milk production, treated against negative controlled cows [5]: around −40%
drop of milk production at the next morning milking (D5), mean [7]: 6 L
Mean ΔITP at +24 h after treatment [8]: 9.2 cm

Reference: patent US20230063100A1, “VETERINARY ANTI-PROLACTIN COMPOSITION FOR RUMINANTS USED BY INTRAMAMMARY ADMINISTRATION” (Ceva Santé Animale, priority 2020, published 2023)
